Measurements published in ChEMBL document CHEMBL5120901, “Batatasin III, a Constituent of Dendrobium scabrilingue, Improves Murine Pain-like Behaviors with a Favorable CNS Safety Profile” (J Nat Prod, 2022).
Active and inactive are the calls of the source. The calls are words filed in the database; no cut-off is given here.

How the values were obtained:
[1] = test system: BV-2; test: Anti-inflammatory activity in […] cells assessed as inhibition of LPS-induced NO production at 50 uM pretreated with compound for 1 hr followed by coincubation with LPS for 24 hrs by Griess reagent based analysis; type: functional, cell-based; conditions: Mus musculus, time 25.0 hrs
[2] = test system: BV-2; test: Anti-inflammartory activity against LPS-activated […] cells assessed as reduction in TNF-alpha levels at 50 uM pretreated with compound for 1 hr followed by co-incubation with LPS for 24 hrs by ELISA; type: functional, cell-based; conditions: Mus musculus, time 25.0 hrs
[3] = test system: BV-2; test: Anti-inflammartory activity against LPS-activated […] cells assessed as reduction in IL-6 levels at 50 uM pretreated with compound for 1 hr followed by co-incubation with LPS for 24 hrs by ELISA; type: functional, cell-based; conditions: Mus musculus, time 25.0 hrs
[4] = CNS toxicity in naive ICR mouse assessed as reduction in rotarod latency time at 5 mg/kg, ip measured at <240 mins by rotarod test; type: organism-based; conditions: in vivo, 4 h
[5] = CNS toxicity in naive ICR mouse assessed as motor coordination at 5 mg/kg, ip measured after 240 mins by rotarod test; type: organism-based; conditions: in vivo, 4 h
[6] = CNS toxicity in naive ICR mouse assessed as reduction in spontaneous locomotor activity by measuring reduction in climbing behaviour at 5 mg/kg, ip and measured for 30 mins by LABORAS automated behavioral analysis; type: organism-based; conditions: in vivo, 0.5 h
[7] = CNS toxicity in naive ICR mouse assessed as reduction in spontaneous locomotor activity at 5 mg/kg, ip and measured for 30 mins by LABORAS automated behavioral analysis; type: organism-based; conditions: in vivo, 0.5 h
[8] = CNS toxicity in naive ICR mouse assessed as reduction in spontaneous locomotor activity by measuring increase in immobility behaviour at 5 mg/kg, ip and measured for 30 mins by LABORAS automated behavioral analysis; type: organism-based; conditions: in vivo, 0.5 h
[9] = CNS toxicity in naive ICR mouse assessed as reduction in spontaneous locomotor activity by measuring reduction in rearing behaviour at 5 mg/kg, ip and measured for 30 mins by LABORAS automated behavioral analysis; type: organism-based; conditions: in vivo, 0.5 h
[10] = CNS toxicity in naive ICR mouse assessed as reduction in spontaneous locomotor activity by measuring reduction in animal's movement speed in arena at 5 mg/kg, ip and measured for 30 mins by LABORAS automated behavioral analysis; type: organism-based; conditions: in vivo, 0.5 h
[11] = CNS toxicity in naive ICR mouse assessed as reduction in spontaneous locomotor activity by measuring reduction in distance travelled in arena at 5 mg/kg, ip and measured for 30 mins by LABORAS automated behavioral analysis; type: organism-based; conditions: in vivo, 0.5 h
[12] = CNS toxicity in naive ICR mouse assessed as reduction in spontaneous locomotor activity by measuring reduction in climbing behaviour at 5 mg/kg, ip and measured for 2 hrs by LABORAS automated behavioral analysis; type: organism-based; conditions: in vivo
[13] = CNS toxicity in naive ICR mouse assessed as reduction in spontaneous locomotor activity at 5 mg/kg, ip and measured for 2 hrs by LABORAS automated behavioral analysis; type: organism-based; conditions: in vivo
[14] = CNS toxicity in naive ICR mouse assessed as reduction in spontaneous locomotor activity by measuring increase in immobility behaviour at 5 mg/kg, ip and measured for 2 hrs by LABORAS automated behavioral analysis; type: organism-based; conditions: in vivo
[15] = CNS toxicity in naive ICR mouse assessed as reduction in spontaneous locomotor activity by measuring reduction in rearing behaviour at 5 mg/kg, ip and measured for 2 hrs by LABORAS automated behavioral analysis; type: organism-based; conditions: in vivo
[16] = CNS toxicity in naive ICR mouse assessed as reduction in spontaneous locomotor activity by measuring reduction in animal's movement speed in arena at 5 mg/kg, ip and measured for 2 hrs by LABORAS automated behavioral analysis; type: organism-based; conditions: in vivo
[17] = CNS toxicity in naive ICR mouse assessed as reduction in spontaneous locomotor activity by measuring reduction in distance travelled in arena at 5 mg/kg, ip and measured for 2 hrs by LABORAS automated behavioral analysis; type: organism-based; conditions: in vivo

SMILES | Activity [1] | Activity [2] | Activity [3] | Activity [4] | Activity [5] | Activity [6] | Activity [7] | Activity [8] | Activity [9] | Activity [10] | Activity [11] | Activity [12] | Activity [13] | Activity [14] | Activity [15] | Activity [16] | Activity [17]
CN(C)c1ccc(O)c2c1C[C@H]1C[C@H]3[C@H](N(C)C)C(O)=C(C(N)=O)C(=O)[C@@]3(O)C(O)=C1C2=O | Active | Active | Active | – | – | – | – | – | – | – | – | – | – | – | – | – | –
CN(C)CCCN1c2ccccc2Sc2ccc(Cl)cc21 [CHLORPROMAZINE] | – | – | – | Toxic | Non-Toxic | Toxic | Toxic | Toxic | Toxic | Toxic | Toxic | Toxic | Toxic | Toxic | Toxic | Toxic | Toxic
